This note sets out measurements from patent US11369653B2, “Traditional Chinese medicine composition for treating cardiovascular and cerebrovascular disease, preparation method therefor and use thereof” (priority 2018, dated 2022).

For assay [1], the system named is arteriovenous bypass thrombosis in rats. The assay is described as follows: Arteriovenous bypass thrombosis in rats. It counts as in vivo. The following applies: SD rats, 6.75 mg/kg by gavage for 15 days. The method, then:
After 5 days of adaptive feeding, the animals were randomly divided into blank control group, positive control group (Plavix group, 6.75 mg/kg), and four test substance groups (100, 200, 400 and 800 mg/kg), with 20 rats in each group. The animals were administered by gavage for 15 consecutive days, once a day.
After the last administration, 3% Pentobarbital Sodium was injected intraperitoneally for anesthesia (40 mg/kg). The right common carotid artery and left external jugular vein were separated. A 6 cm long medical surgical suture (No. 0) was placed in the middle of a polyethylene tube, which was filled with normal saline and inserted into the right common carotid artery and the left external jugular vein respectively to form an arteriovenous vascular loop. After 15 minutes, the blood flow was cut off, and the suture was taken out and weighed.
In this experiment, the classical rat arteriovenous bypass was used to form the bypass arteriovenous blood flow. When the platelets in the arterial blood flow contact the rough surface of the suture, they adhere to the suture, and the platelet aggregation forms platelet thrombosis around the surface of the suture. When platelet adhesion and aggregation function is inhibited, the weight of thrombosis become smaller. Therefore, the adhesion and aggregation function of platelets can be measured by thrombus weight.

In assay [2] the test system is thrombin induced platelet aggregation in rats. The assay is described as follows: Thrombin induced rat platelet aggregation after 15 days gavage. It counts as in vivo. Conditions: SD rats, 6.75 mg/kg by gavage for 15 days. The source says: Platelet aggregation rate is a detection index of platelet function. The higher the platelet aggregation rate, the greater the possibility of thrombosis. In arteriosclerosis, coronary heart disease, cerebral infarction, hypertension, diabetes and other thrombotic diseases, platelet aggregation rate is often increased. […] Therefore, the determination of platelet aggregation rate can be used to observe the curative effect and screen drugs. In this study, thrombin induced rat platelet aggregation model was used to evaluate the inhibitory effect of the traditional Chinese medicine composition on platelet aggregation. […]
After the last administration, 3% Pentobarbital Sodium was injected intraperitoneally for anesthesia (40 mg/kg). […] After 10 minutes of centrifugation at 800 rpm, the upper platelet rich plasma (PRP) was aspirated and the number of platelets was counted. […]
A small magnetic rod and 300 μl PRP were added into a square cup, which was preheated for 5 minutes in a constant temperature hole, and 300 μl PPP was added into another square cup. […] The maximum platelet aggregation rate was measured, wherein 3-4 parallel tests were performed for each blood sample and the average value was taken.

`COC(=O)[C@H](c1ccccc1Cl)N1CCc2sccc2C1` [Plavix, Clopidogrel Hydrogen Sulphate]: in assay [1], the “Net weight of suture” value came to 20.2 ± 4.8 mg. Further, the “Maximum platelet aggregation rate” value in assay [2] is listed as 35.8±29.7%.
